Like-named read-outs stand apart in the source and are kept apart here.
Assays:
[1] = system: cellular dehydrogenase activity; settings: for MTT (composite Z-score): normalized score vs mock-treated (DMSO) wells
reactive oxygen species = format: cell-based, mouse; settings: for ROS (composite Z-score): normalized score vs mock-treated (DMSO) wells
cytochrome c = format: cell-based, mouse; settings: for cyt c (composite Z-score): normalized score vs mock-treated (DMSO) wells
[2] = system: mitochondrial membrane potential; format: cell-based, mouse; settings: for ΔΨm (composite Z-score): normalized score vs mock-treated (DMSO) wells
C2C12 myotubes = settings: for Viability (composite Z-score): normalized score vs mock-treated (DMSO) wells
mtOXPHOS transcripts = format: cell-based, mouse; settings: for mitoOX (composite Z-score): normalized score vs mock-treated (DMSO) wells
nuOXPHOS transcripts = format: cell-based, mouse; settings: for nucOX (composite Z-score): normalized score vs mock-treated (DMSO) wells
OXPHOS gene expression = format: cell-based, mouse; settings: for GE-HTS (composite Z-score): normalized score vs mock-treated (DMSO) wells
[3] = 20 μM, composite Z-score vs DMSO
[4] = normalized composite Z-score vs mock-treated (DMSO) wells, Conc 20 μM
[5] = composite Z-score vs mock-treated (DMSO) wells, concentration of each compound in μM
[6] = composite Z-score vs DMSO, Conc 20 μM
[7] = composite Z-score vs mock-treated (DMSO) wells, Conc 20 μM

With `C[N+]12CCC(CC1)C(OC(=O)C(O)(c1ccccc1)c1ccccc1)C2` (stereo not drawn) [clidinium] the MTT [1] was −2.250, the MTT [1, 3] was −1.393 and the ROS (reactive oxygen species) was 1.870. It also gave an ROS (reactive oxygen species; [3]) of 1.625, a cyt c (cytochrome c) of 0.176 and a cyt c (cytochrome c; [3]) of −0.062. It also gave a ΔΨm [2] of −0.715, a ΔΨm [2, 3] of −0.772 and a Viability (C2C12 myotubes) of 0.172. For the same molecule, the Viability (C2C12 myotubes; [3]) was −0.084, the mitoOX (mtOXPHOS transcripts) was −0.903 and the mitoOX (mtOXPHOS transcripts; [3]) was −0.602. For the same molecule, the nucOX (nuOXPHOS transcripts) was −0.202, the nucOX (nuOXPHOS transcripts; [3]) was −0.503 and the GE-HTS (OXPHOS gene expression) was −0.462. The GE-HTS (OXPHOS gene expression; [3]) was −0.556.
In the case of `COC(=O)[C@H](c1ccccc1Cl)N1CCc2sccc2C1` [clopidogrel], the MTT [1] is reported as −1.447, the ROS (reactive oxygen species) is reported as −0.196 and the cyt c (cytochrome c) is reported as 0.410. It also gave a ΔΨm [2] of −0.698, a Viability (C2C12 myotubes) of −1.134 and a mitoOX (mtOXPHOS transcripts) of −1.441. For the same molecule, the nucOX (nuOXPHOS transcripts) was −1.328 and the GE-HTS (OXPHOS gene expression) was −1.470.
Work on `CC(=O)OC1CCC23CC1(C)CCC2C(C)(C)CC3OC(C)=O` (stereo not drawn) [clovanediol diacetate] yielded an MTT [1, 4] of −0.708, an ROS (reactive oxygen species; [4]) of −0.318 and a cyt c (cytochrome c; [4]) of 0.384. The ΔΨm [2, 4] was −0.599, the Viability (C2C12 myotubes; [4]) was −0.119 and the mitoOX (mtOXPHOS transcripts; [4]) was −0.026. For the same molecule, the nucOX (nuOXPHOS transcripts; [4]) was 0.007 and the GE-HTS (OXPHOS gene expression; [4]) was −0.020.
`Cc1onc(-c2ccccc2Cl)c1C(=O)N[C@@H]1C(=O)N2[C@@H]1SC(C)(C)[C@@H]2C(=O)O` [cloxacillin] was tested, and the MTT [1, 3] was −1.769, the ROS (reactive oxygen species; [3]) was 0.259 and the cyt c (cytochrome c; [3]) was 0.459. It also gave a ΔΨm [2, 3] of −0.339, a Viability (C2C12 myotubes; [3]) of −0.395 and a mitoOX (mtOXPHOS transcripts; [3]) of −0.508. It also gave a nucOX (nuOXPHOS transcripts; [3]) of −0.506 and a GE-HTS (OXPHOS gene expression; [3]) of −0.568.
Molecule `C/C1=C2/[N-][C@H]([C@H](CC(N)=O)[C@@]2(C)CCC(=O)NC[C@@H](C)OP(=O)([O-])O[C@H]2[C@@H](O)[C@@H](n3cnc4cc(C)c(C)cc43)O[C@@H]2CO)[C@]2(C)N=C(/C(C)=C3N=C(/C=C4N=C1[C@@H](CCC(N)=O)C\4(C)C)[C@@H](CCC(N)=O)[C@]\3(C)CC(N)=O)[C@@H](CCC(N)=O)[C@]2(C)CC(N)=O.[Co]` [cobalamine] has an MTT [1, 5] of −1.369, an ROS (reactive oxygen species; [5]) of 2.944 and a cyt c (cytochrome c; [5]) of −0.617. It also gave a ΔΨm [2, 5] of 0.097, a Viability (C2C12 myotubes; [5]) of −0.821 and a mitoOX (mtOXPHOS transcripts; [5]) of −0.393. The nucOX (nuOXPHOS transcripts; [5]) was −0.373 and the GE-HTS (OXPHOS gene expression; [5]) was −0.402.
For `COC1=C(OC)C(=O)C(C/C=C(\C)CC/C=C(\C)CC/C=C(\C)CC/C=C(\C)CC/C=C(\C)CC/C=C(\C)CC/C=C(\C)CC/C=C(\C)CC/C=C(\C)CCC=C(C)C)=C(C)C1=O` [coenzyme Q10], the “MTT (composite Z-score)” value ([1]; Conc 20 μM) was −1.758, the “ROS (composite Z-score)” value (reactive oxygen species; Conc 20 μM) was 1.179 and the “cyt c (composite Z-score)” value (cytochrome c; Conc 20 μM) was 0.636. The “ΔΨm (composite Z-score)” value ([2]; Conc 20 μM) was 0.920, the “Viability (composite Z-score)” value (C2C12 myotubes; Conc 20 μM) was 0.166 and the “mitoOX (composite Z-score)” value (mtOXPHOS transcripts; Conc 20 μM) was 0.226. The “nucOX (composite Z-score)” value (nuOXPHOS transcripts; Conc 20 μM) was 0.391 and the “GE-HTS (composite Z-score)” value (OXPHOS gene expression; Conc 20 μM) was 0.366.
`COc1cc2c(c(OC)c1OC)-c1ccc(=O)c(O)cc1[C@@H](NC(C)=O)CC2` [colchiceine] showed an MTT [1, 6] of −3.186, an ROS (reactive oxygen species; [6]) of 0.469 and a cyt c (cytochrome c; [6]) of −0.908. It also gave a ΔΨm [2, 6] of −0.812, a Viability (C2C12 myotubes; [6]) of −0.333 and a mitoOX (mtOXPHOS transcripts; [6]) of 1.192. For the same molecule, the nucOX (nuOXPHOS transcripts; [6]) was 1.935 and the GE-HTS (OXPHOS gene expression; [6]) was 1.832.
In the case of `COc1cc(/C=C/CO)ccc1O` [coniferyl alcohol], the “MTT (composite Z-score)” value ([1]; Conc 20 μM) is reported as −1.094, the “ROS (composite Z-score)” value (reactive oxygen species; Conc 20 μM) is reported as −0.450 and the “cyt c (composite Z-score)” value (cytochrome c; Conc 20 μM) is reported as 0.296. The “ΔΨm (composite Z-score)” value ([2]; Conc 20 μM) was −0.719, the “Viability (composite Z-score)” value (C2C12 myotubes; Conc 20 μM) was −0.771 and the “mitoOX (composite Z-score)” value (mtOXPHOS transcripts; Conc 20 μM) was −0.251. For the same molecule, the “nucOX (composite Z-score)” value (nuOXPHOS transcripts; Conc 20 μM) was −0.688 and the “GE-HTS (composite Z-score)” value (OXPHOS gene expression; Conc 20 μM) was −0.593.
For `C[C@]12CCC(=O)C=C1CC[C@@H]1[C@@H]2C(=O)C[C@@]2(C)[C@H]1CC[C@]2(O)C(=O)CO` [cortisone], the MTT [1, 6] was −0.146, the ROS (reactive oxygen species; [6]) was 0.527 and the cyt c (cytochrome c; [6]) was −0.078. For the same molecule, the ΔΨm [2, 6] was −0.232, the Viability (C2C12 myotubes; [6]) was 0.644 and the mitoOX (mtOXPHOS transcripts; [6]) was −0.830. It also gave a nucOX (nuOXPHOS transcripts; [6]) of −0.165 and a GE-HTS (OXPHOS gene expression; [6]) of −0.428.
Molecule `O=c1cc(-c2ccc(O)cc2)oc2cc(O[C@@H]3O[C@H](CO)[C@@H](O)[C@H](O)[C@H]3O)cc(O)c12` [cosmosiin] has an MTT [1, 6] of −0.801, an ROS (reactive oxygen species; [6]) of −0.052 and a cyt c (cytochrome c; [6]) of −0.009. For the same molecule, the ΔΨm [2, 6] was 0.053, the Viability (C2C12 myotubes; [6]) was 0.141 and the mitoOX (mtOXPHOS transcripts; [6]) was −0.611. For the same molecule, the nucOX (nuOXPHOS transcripts; [6]) was −0.287 and the GE-HTS (OXPHOS gene expression; [6]) was −0.433.
Work on `COc1c2c(cc3c1OCO3)CC[N+](C)=C2` [cotarnine] yielded an MTT [1, 7] of −0.587, an ROS (reactive oxygen species; [7]) of −0.007 and a cyt c (cytochrome c; [7]) of 0.068. It also gave a ΔΨm [2, 7] of −1.103, a Viability (C2C12 myotubes; [7]) of −0.398 and a mitoOX (mtOXPHOS transcripts; [7]) of −0.151. It also gave a nucOX (nuOXPHOS transcripts; [7]) of 0.159 and a GE-HTS (OXPHOS gene expression; [7]) of 0.049.

From patent US20090143279A1 (priority 2007, published 2009)
